Test results as given in patent US9572911B2, “Method for decellularization of tissue grafts” (University of Florida Research Foundation, Inc., priority 2013, dated 2017).

Molecular target: purified laminin-1 (Homo sapiens, UniProt P07942+P11047+P25391)
Experiment: Effects of individual detergents on the neurite-promoting activity of purified laminin
Type: cell-based
Settings: dialyzed, neurons 24 hours, FIG. 14
Method: FIG. 14. Effects of individual detergents on the neurite-promoting activity of purified laminin. Purified laminin-1 was mixed with individual detergents as follows: Control (buffer alone), sulfobetaine-10 (125 mM), sulfobetaine-16 (0.6 mM) and […] (0.14%). The mixtures were extensively dialyzed and then were added to tissue culture wells to form a substratum onto which dissociated neurons were seeded. After 24 hours in culture the length of neurites were measured. Data represent the specific activities (ED50) calculated from mean scores from dilution series performed in duplicates in 4 separate experiments
The extracellular matrix of nerve is known to promote the growth of axons. In particular, the basal lamina tubes encasing axons provides a potent stimulus for axonal growth in nerve regeneration. The cryoculture assay used in the experiments described above relies on the structure and growth-promoting activity of the basal lamina. It is well documented that laminin is the major neurite-promoting component of the nerve basal lamina. […] Therefore, tests were performed to examine the effects of individual detergents on purified laminin. Laminin activity was unchanged by SB-10. Exposure to SB-16 reduced laminin activity approximately 50%.

Row | Structure (SMILES) | laminin neurite-promoting activity after exposure to detergent (SB-10 125 mM, SB-16 0.6 mM, Triton X-200 0.14%) | reduction of laminin activity (sulfobetaine-16 0.6 mM)
1 | CCCCCCCCCC[N+](C)(C)CCCS(=O)(=O)[O-] [SB-10, sulfobetaine-10] | unchanged | 
2 | CCCCCCCCCCCCCCCC[N+](C)(C)CCCS(=O)(=O)[O-] [SB-16, sulfobetaine-16] |  | approximately 50%
